Test results reported in ChEMBL document CHEMBL1144699 (Bioorg Med Chem, 2008).
Activity calls are given as the source filed them. The rule behind the calls is not given here.

What was measured:
[1] = biological target: Mitogen-activated protein kinase 8 (Homo sapiens, UniProt P45983); assay: Inhibition of human JNK1 by radiometric assay
[2] = Metabolic stability in rat microsomes at 1 uM; type: ADME, Microsome; conditions: read-out: Stability
[3] = biological target: Mitogen-activated protein kinase 8 (Rattus norvegicus, UniProt P49185); assay: Inhibition of JNK1 in rat H9c2 cells assessed as inhibition of anisomycin-induced cJun phosphorylation after 30 mins; type: cell-based
[4] = Lipophilicity, log D at pH 7.4; type: physicochemical; conditions: buffer
[5] = Metabolic stability in human microsomes at 1 uM; type: ADME, Microsome; conditions: read-out: Stability
[6] = Volume of distribution at steady state in Wistar rat at 0.3 mg/kg, iv; type: ADME, organism-based; set-up: dose 0.3 mg/kg, route intravenous; conditions: in vivo, read-out: Vdss
[7] = Tmax in Wistar rat at 3 mg/kg, po; type: ADME, organism-based; set-up: dose 3 mg/kg, route oral; conditions: in vivo
[8] = AUC in Wistar rat at 0.3 mg/kg, iv; type: ADME, organism-based; set-up: dose 0.3 mg/kg, route intravenous; conditions: plasma
[9] = Total clearance in Wistar rat at 0.3 mg/kg, iv; type: ADME, organism-based; set-up: dose 0.3 mg/kg, route intravenous; conditions: in vivo
[10] = Oral bioavailability in Wistar rat at 3 mg/kg; type: ADME, organism-based; conditions: in vivo
[11] = AUC in Wistar rat at 3 mg/kg, po; type: ADME, organism-based; set-up: dose 3 mg/kg, route oral; conditions: plasma
[12] = test system: Rattus norvegicus; assay: Suppression of pressure-overload-induced cardiac hypertrophy in Wistar rat assessed as decrease in left ventricular weight to body weight ratio at 1 mg/kg, po once daily for 7 days; type: functional, organism-based; set-up: dose 1 mg/kg; conditions: Heart left ventricle
[13] = Cmax in Wistar rat at 3 mg/kg, po; type: ADME, organism-based; set-up: dose 3 mg/kg, route oral; conditions: in vivo

Sequence of Mitogen-activated protein kinase 8 (Rattus norvegicus, UniProt P49185) (P49185 whole entry): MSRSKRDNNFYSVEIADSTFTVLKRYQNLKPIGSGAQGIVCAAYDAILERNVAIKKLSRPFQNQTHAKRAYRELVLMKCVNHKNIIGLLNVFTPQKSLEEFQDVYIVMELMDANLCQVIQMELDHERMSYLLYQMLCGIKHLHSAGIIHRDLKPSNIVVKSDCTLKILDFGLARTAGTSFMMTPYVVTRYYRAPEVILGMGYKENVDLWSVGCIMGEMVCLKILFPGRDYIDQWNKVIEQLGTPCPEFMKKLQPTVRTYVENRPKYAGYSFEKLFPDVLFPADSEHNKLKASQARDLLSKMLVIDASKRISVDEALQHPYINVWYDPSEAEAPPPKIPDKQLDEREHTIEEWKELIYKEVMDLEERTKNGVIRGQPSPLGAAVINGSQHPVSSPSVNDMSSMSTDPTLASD
Sequence of Mitogen-activated protein kinase 8 (Homo sapiens, UniProt P45983) (P45983 whole entry): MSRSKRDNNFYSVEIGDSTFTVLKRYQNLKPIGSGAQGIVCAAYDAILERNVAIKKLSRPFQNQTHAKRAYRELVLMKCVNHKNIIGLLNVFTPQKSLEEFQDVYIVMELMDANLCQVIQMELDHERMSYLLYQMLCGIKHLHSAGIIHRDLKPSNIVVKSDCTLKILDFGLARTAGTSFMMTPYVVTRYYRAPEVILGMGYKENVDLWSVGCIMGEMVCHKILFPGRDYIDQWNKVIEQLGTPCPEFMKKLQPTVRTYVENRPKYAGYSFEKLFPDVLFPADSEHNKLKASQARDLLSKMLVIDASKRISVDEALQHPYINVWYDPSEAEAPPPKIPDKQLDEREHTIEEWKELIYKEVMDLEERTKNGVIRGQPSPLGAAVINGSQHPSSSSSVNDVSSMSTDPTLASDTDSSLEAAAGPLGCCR

Question: Which IC50 [1] does the source give for `CCC(=O)c1c(-c2ccccc2)c2cc(Cl)ccc2c(=O)n1Cc1cn(C(=O)NC)c(C)n1` here?
Answer: 6.8 nM

Question: Which microsomal CLint at 1 µM [2] does the source give for `CCC(=O)c1c(-c2ccccc2)c2cc(Cl)ccc2c(=O)n1Cc1cc(C(N)=O)n(CC)n1` here?
Answer: 110 µL/min/mg

Question: What about the IC50 [3] of the same compound?
Answer: 670 nM

Question: What about the IC50 [1] of the same compound?
Answer: 11 nM

Question: And the logD [4]?
Answer: 4.08

Question: And the microsomal CLint at 1 µM [5]?
Answer: 35 µL/min/mg

Question: For `CCC(=O)c1c(-c2ccccc2)c2cc(Cl)ccc2c(=O)n1Cc1cc(S(C)(=O)=O)n(CC(C)=O)n1`, which microsomal CLint at 1 µM [2] is on record?
Answer: 80 µL/min/mg

Question: What about the IC50 [3] of the same compound?
Answer: 730 nM

Question: What about the IC50 [1] of the same compound?
Answer: 7.6 nM

Question: What about the logD [4] of the same compound?
Answer: 3.79

Question: And the microsomal CLint at 1 µM [5]?
Answer: 70 µL/min/mg

Question: Which microsomal CLint at 1 µM [2] does the source give for `CCC(=O)c1c(-c2ccccc2)c2cc(Cl)ccc2c(=O)n1Cc1cc(S(C)(=O)=O)n(CCC(C)(C)O)n1` here?
Answer: 74 µL/min/mg

Question: What about the IC50 [3] of the same compound?
Answer: 330 nM

Question: What about the IC50 [1] of the same compound?
Answer: 10 nM

Question: What about the logD [4] of the same compound?
Answer: 4.23

Question: What about the microsomal CLint at 1 µM [5] of the same compound?
Answer: 102 µL/min/mg

Question: What does the source list for `CCC(=O)c1c(-c2ccccc2)c2cc(Cl)ccc2c(=O)n1Cc1cc(C(N)=O)n(C)n1`?
Answer: microsomal CLint at 1 µM [2]: 81 µL/min/mg; IC50 [3]: 2180 nM; IC50 [1]: 7.3 nM; logD [4]: 3.77; microsomal CLint at 1 µM [5]: 15 µL/min/mg

Question: For `CCNC(=O)n1cc(Cn2c(C(=O)CC)c(-c3ccccc3)c3cc(Cl)ccc3c2=O)cn1`, which microsomal CLint at 1 µM [2] is on record?
Answer: 60 µL/min/mg

Question: And the IC50 [1]?
Answer: 43 nM

Question: What about the logD [4] of the same compound?
Answer: 4.45

Question: And the microsomal CLint at 1 µM [5]?
Answer: 43 µL/min/mg

Question: Which results are given for `CCC(=O)c1c(-c2ccccc2)c2cc(Cl)ccc2c(=O)n1Cc1cc(S(C)(=O)=O)n(CC(N)=O)n1`?
Answer: IC50 [3]: 1050 nM; IC50 [1]: 8.2 nM; logD [4]: 3.42; microsomal CLint at 1 µM [5]: 14 µL/min/mg

Question: With `CCC(=O)c1c(-c2ccccc2)c2cc(Cl)ccc2c(=O)n1Cc1ccc(C(=O)O)cc1` as the compound, how does the IC50 [3] read?
Answer: 2300 nM

Question: For `CCC(=O)c1c(-c2ccccc2)c2cc(Cl)ccc2c(=O)n1Cc1cc(C(=O)NC)n(C)n1`, which microsomal CLint at 1 µM [2] is on record?
Answer: 177 µL/min/mg

Question: What about the IC50 [3] of the same compound?
Answer: 260 nM

Question: What about the IC50 [1] of the same compound?
Answer: 9.4 nM

Question: And the logD [4]?
Answer: 3.97

Question: What about the microsomal CLint at 1 µM [5] of the same compound?
Answer: 79 µL/min/mg

Question: Which results are given for `CCC(=O)c1c(-c2ccccc2)c2cc(Cl)ccc2c(=O)n1Cc1cc(C(=O)N(C)C)n(C)n1`?
Answer: microsomal CLint at 1 µM [2]: 230 µL/min/mg; IC50 [1]: 11 nM; logD [4]: 3.91; microsomal CLint at 1 µM [5]: 250 µL/min/mg

Question: With `CCC(=O)c1c(-c2ccccc2)c2cc(Cl)ccc2c(=O)n1Cc1cc(C(=O)NC2CC2)n(C)n1` as the compound, how does the microsomal CLint at 1 µM [2] read?
Answer: 89 µL/min/mg

Question: And the Vd [6]?
Answer: 3.54 L/kg

Question: What about the Tmax [7] of the same compound?
Answer: 2 h

Question: What about the IC50 [3] of the same compound?
Answer: 720 nM

Question: And the IC50 [1]?
Answer: 6.4 nM

Question: What about the AUC [8] of the same compound?
Answer: 234 ng·h/mL

Question: What about the logD [4] of the same compound?
Answer: 4.35

Question: And the clearance [9]?
Answer: 21.4 mL/min/kg

Question: And the microsomal CLint at 1 µM [5]?
Answer: 44 µL/min/mg

Question: What about the bioavailability [10] of the same compound?
Answer: 15%

Question: And the AUC [11]?
Answer: 340 ng·h/mL

Question: What about the Activity [12] of the same compound?
Answer: Active

Question: And the Cmax [13]?
Answer: 47.1 ng/mL

Question: Which results are given for `CCC(=O)c1c(-c2ccccc2)c2cc(Cl)ccc2c(=O)n1Cc1cc(C(=O)NC)n[nH]1`?
Answer: microsomal CLint at 1 µM [2]: 74 µL/min/mg; IC50 [1]: 33 nM; logD [4]: 3.5; microsomal CLint at 1 µM [5]: 37 µL/min/mg

Question: Which IC50 [1] does the source give for `CCC(=O)c1c(-c2ccccc2)c2cc(Cl)ccc2c(=O)n1Cc1ccc(S(C)(=O)=O)cc1` here?
Answer: 28 nM

Question: What does the source list for `CCC(=O)c1c(-c2ccccc2)c2cc(Cl)ccc2c(=O)n1Cc1cc(S(C)(=O)=O)n(CC(F)F)n1`?
Answer: microsomal CLint at 1 µM [2]: 52 µL/min/mg; IC50 [3]: 480 nM; IC50 [1]: 10 nM; logD [4]: 4.19; microsomal CLint at 1 µM [5]: 36 µL/min/mg

Question: For `CCNC(=O)n1ccc(Cn2c(C(=O)CC)c(-c3ccccc3)c3cc(Cl)ccc3c2=O)n1`, which IC50 [1] is on record?
Answer: 8.6 nM

Question: What about the logD [4] of the same compound?
Answer: 4.51

Question: For `COC(=O)c1c(-c2ccccc2)c2cc(Br)ccc2c(=O)n1Cc1ccc(S(C)(=O)=O)cc1`, which IC50 [3] is on record?
Answer: 2600 nM

Question: For `CCC(=O)c1c(-c2ccccc2)c2cc(Cl)ccc2c(=O)n1Cc1cc(C(=O)NC2CC2)n(CC(F)F)n1`, which IC50 [3] is on record?
Answer: 1140 nM

Question: And the IC50 [1]?
Answer: 10 nM

Question: And the logD [4]?
Answer: 4.66

Question: What about the microsomal CLint at 1 µM [5] of the same compound?
Answer: 14 µL/min/mg
